# Reference: publication PMC8504577, “Evaluation of a Clinically Relevant Drug–Drug Interaction Between Rosuvastatin and Clopidogrel and the Risk of Hepatotoxicity” (Frontiers in Pharmacology, 2021)
# Key:
# [1] = tested on: sodium taurocholate cotransporting polypeptide (NTCP); conditions: ref Elsby et al., 2016; cited from earlier work
# [2] = Cytotoxicity (MTT, AST, LDH) in cryopreserved human hepatocytes; assay type: cell-based; conditions: human, cryopreserved primary human hepatocytes; 96 h incubation
# Method: Cytotoxicity was determined with MTT assay in cryopreserved human hepatocytes. Thawing and plating of cryopreserved hepatocytes were carried out according to the manufacturer’s protocol. […] 11 μL of 5 mg/ml MTT was added to each well of the plate, and then the plate was incubated at 37°C for 3–4 h. After the medium was aspirated, 150 μL of DMSO was added to dissolve the formazan. The absorbance at 570 nm was measured and corrected for background absorption at 690 nm using a SpectraMax® i3 plate reader (Molecular Devices, Silicon Valley, CA, United States). AST and LDH levels in the medium of parallel processed plates were measured by commercially available assay kits. […] All experiments were performed in triplicate.
# [3] = tested on: OATP1B3; parameters: method as in Elsby et al., 2016; conditions: ref Elsby et al., 2016; cited from earlier work
smiles,measurement,setting,value
"CC(C)c1nc(N(C)S(C)(=O)=O)nc(-c2ccc(F)cc2)c1/C=C/[C@@H](O)C[C@@H](O)CC(=O)O [RSV, rosuvastatin]",Individual contribution of NTCP to hepatic uptake,[1],0.21
same,IC50 at 96 h,[2],14.8 µM
same,Individual contribution of OATP1B3 to hepatic uptake,[3],0.11
